Measurements from US20230135093A1, “TRIAZOLYL DERIVATIVES AS GABA A ALPHA5 PAM” (Hoffmann-La Roche Inc., priority 2020, published 2023).

Assays:
h-GABA-A α5β3γ2 [1] = target: T1, h-GABA-A α5β3γ2 (Homo sapiens, UniProt P18507+P31644); experiment: Two-electrode voltage clamp electrophysiology in Xenopus oocytes expressing GABAA receptors (modulation of GABA EC20 current); assay type: cell-based; settings: Table 1; for Efficacy (GABA) %: % modulation of GABA EC20 = 100*(Fold increase-1); for Fold increase h-GABA-A α5β3γ2 oocyte: Xenopus oocytes, GABA EC20, test compound at approximatively 30 fold its Ki
T1 construct: expressed in transfected cells; host or cells: Xenopus laevis oocytes, micro-injected with subunit RNA
Description: Xenopus laevis oocytes at maturation stages V-VI were used for the expression of cloned mRNA encoding GABAA receptor subunits. Oocytes ready for RNA micro-injection were bought from Ecocyte, Castrop-Rauxel, Germany and stored in modified Barth's medium (composition in mM: NaCl 88, KCl 1, NaHCO3 2.4, HEPES 10, MgSO4 0.82, CaNO3 0.33, CaCl2 0.33, pH=7.5) at 20° C. until the experiment.
Oocytes were plated in 96-well plates to be used in an automated instrument (Robo-ocyte, MultiChannelSystems, Reutlingen, Germany) for microinjection and electrophysiological recordings. Approximately 50 nl of an aqueous solution containing the RNA transcripts for the subunits of the desired GABAA receptor was injected into each oocyte. RNA concentrations ranged between 0.3 and 16 ng/μl/subunit and were adjusted in pilot experiments to obtain GABA responses of a suitable size and a maximal effect of the reference modulator, Beta-CCM (3-CCM), a betacarboline negative allosteric modulator (NAM) at the GABAA receptor benzodiazepine (BZD) binding site or Midazolam, a benzodiazepine positive allosteric modulator (PAM) at the GABAA receptor benzodiazepine (BZD) binding site. The concentration of the γ2 subunit encoding RNA usually was 5- to 10-fold higher than the RNAs encoding the other subunits. Oocytes were kept in modified Barth's medium (composition in mM: NaCl 88, KCl 1, NaHCO3 4, HEPES 10, MgSO4 0.82, CaNO3 0.33, CaCl2 0.33, pH=7.5) at 20° C. until the experiment.
Electrophysiological experiments were performed on days 3 to 5 after the micro-injection of mRNA. During the experiment the oocytes were constantly superfused by a solution containing (in mM) NaCl 90, KCl 1, HEPES 5, MgCl2 1, CaCl2 1 (pH 7.4). Oocytes were impaled by two glass microelectrodes (resistance: 0.4 MQ) which were filled with a solution containing KCl 1M+K-acetate 1.5 M and voltage-clamped to −80 mV. The recordings were performed at room temperature using the Roboocyte two-electrode voltage clamp system (Multichannelsystem). After an initial equilibration period of 1.5 min GABA was added for 1.5 min at a concentration evoking approximately 20% of a maximal current response (EC20). After another rest interval of 2.5 min GABA was again added evoking a response of similar amplitude and shape. 0.5 min after the onset of this second GABA application the test compound, at a concentration corresponding to approximatively 30 fold its Ki, was added while GABA was still present. Current traces were recorded at a digitization rate of 10 Hz during and shortly before and after the GABA application.
Each compound and concentration was tested on at least 3 oocytes. Different oocytes were used for different compound concentrations. β-CCM, a negative allosteric modulator, or Midazolam, a positive allosteric modulators, were tested on a few (3-6) oocytes on each 96-well plate for a positive control at a maximally effective. β-CCM inhibited the GABA-evoked current by approximatively 50% (Fold increase 0.5), while Midazolam potentiated the GABA-induced current by approximatively 150% (Fold increase 2.5).
For the analysis, the digitized current traces of the first and second GABA response were superimposed and, if necessary, rescaled to equal maximal amplitudes. The ratio between the two responses during the time interval of test compound application was calculated point by point. The extremum of the resulting “ratio trace” was taken as the efficacy (“Fold increase”) of the compound expressed as “% modulation of GABA EC20” (100*(Fold increase-1)).

h-GABA-A α5β3γ2 [2] = target: T1, h-GABA-A α5β3γ2; experiment: [3H]flumazenil competition binding assay on membranes of HEK293 cells expressing GABAA receptors; settings: Table 1; displacement of [3H]-Flumazenil (0.5 nM), HEK293 cells expressing human receptors, means of two determinations
Description: The affinity of compounds at GABAA receptor subtypes was measured by competition for [3H]flumazenil (85 Ci/mmol; Roche) binding to HEK293 cells expressing rat (stably transfected) or human (transiently transfected) receptors of composition α1β3γ2, α2β3γ2, α3β3γ2 and α5β3γ2.
Cell pellets were suspended in Krebs-tris buffer (4.8 mM KCl, 1.2 mM CaCl2, 1.2 mM MgCl2, 120 mM NaCl, 15 mM Tris; pH 7.5; binding assay buffer), homogenized by polytron for ca. 20 sec on ice and centrifuged for 60 min at 4° C. (50000 g; Sorvall, rotor: SM24=20000 rpm). The cell pellets were resuspended in Krebs-tris buffer and homogenized by polytron for ca. 15 sec on ice. Protein was measured (Bradford method, Bio-Rad) and aliquots of 1 mL were prepared and stored at −80° C.
Radioligand binding assays were carried out in a volume of […] (96-well plates) which contained […] of cell membranes, [^3H]-Flumazenil at a concentration of 1 nM for α1, α2, α3 subunits and 0.5 nM for α5 subunits and the test compound in the range of […]. Nonspecific binding was defined by 10^−5 M diazepam and typically represented less than 5% of the total binding. Assays were incubated to equilibrium for 1 hour at 4° C. and harvested onto GF/C uni-filters (Packard) by filtration using a Packard harvester and washing with ice-cold wash buffer (50 mM Tris; pH 7.5). After drying, filter-retained radioactivity was detected by liquid scintillation counting. Ki values were calculated using Excel-Fit (Microsoft) and are the means of two determinations.
In a preferred embodiment the compounds of the invention are binding selective for the α5 subunit relative to the α1, α2 and α3 subunit. Representative test results, obtained by the above described assay measuring binding affinity to HEK293 cells expressing human (h) receptors, are shown in the Table below.

Structure (SMILES)	Efficacy (GABA) % (h-GABA-A α5β3γ2 [1])	Fold increase h-GABA-A α5β3γ2 oocyte (h-GABA-A α5β3γ2 [1])	Ki (h-GABA-A α5β3γ2 [2])
COc1ccc(-c2cnn(Cc3c(C)nnn3-c3ccc(Cl)cc3F)c(=O)c2)cc1 [Example 56, 2-((3-(4-chloro-2-fluoro-phenyl)-5-methyl-triazol-4-yl)methyl)-5-(4-methoxyphenyl)pyridazin-3-one]	50%	1.5	21.6 nM
CO[C@H]1COC2(C1)CN(c1cnn(Cc3c(-c4ccc(Cl)cc4F)nnn3C)c(=O)c1)C2 [Example 33, (R)-2-((4-(4-chloro-2-fluorophenyl)-1-methyl-1H-1,2,3-triazol-5-yl)methyl)-5-(7-methoxy-5-oxa-2-azaspiro[3.4]octan-2-yl)pyridazin-3(2H)-one]	61%	1.61	16.7 nM
COC[C@@H]1CCCN1c1cnn(Cc2c(-c3ccc(C)nc3)nnn2C)c(=O)c1 [Example 19, 5-[(2S)-2-(methoxymethyl)pyrrolidin-1-yl]-2-[[3-methyl-5-(6-methyl-3-pyridyl)triazol-4-yl]methyl]pyridazin-3-one]	137%	2.37	10.6 nM
Cc1nnn(-c2ccc(Cl)cc2)c1Cn1ncc(N2CCNCC2)cc1=O [Example 14, 2-[[3-(4-chlorophenyl)-5-methyl-triazol-4-yl]methyl]-5-piperazin-1-yl-pyridazin-3-one]	72%	1.72	39.6 nM
Cn1nnc(-c2ccc(Cl)cc2F)c1Cn1ncc(N2CC(OCC(F)(F)F)C2)cc1=O [Example 50, 2-((5-(4-chloro-2-fluoro-phenyl)-3-methyl-triazol-4-yl)methyl)-5-(3-(2,2,2-trifluoro-ethoxy)azetidin-1-yl)pyridazin-3-one]	67%	1.67	5.2 nM
Cc1nnn(-c2ccc(Cl)cc2F)c1Cn1ncc(N2C[C@@H](C)O[C@@H](C)C2)cc1=O [Example 7, 2-((3-(4-chloro-2-fluoro-phenyl)-5-methyl-triazol-4-yl)methyl)-5-((2S,6R)-2,6-dimethylmorpholin-4-yl)pyridazin-3-one]	164%	2.64	5.8 nM
CCOC1CN(c2cnn(Cc3c(C)nnn3-c3ccc(Cl)cc3F)c(=O)c2)C1 [Example 23, 2-((1-(4-chloro-2-fluorophenyl)-4-methyl-1H-1,2,3-triazol-5-yl)methyl)-5-(3-ethoxyazetidin-1-yl)pyridazin-3(2H)-one]	75%	1.75	70 nM
CCOC1CN(c2cnn(Cc3c(-c4ccc(Cl)cc4F)nnn3CC)c(=O)c2)C1 [Example 91, 2-[[5-(4-chloro-2-fluoro-phenyl)-3-ethyl-triazol-4-yl]methyl]-5-(3-ethoxyazetidin-1-yl)pyridazin-3-one]	128%	2.28	18.2 nM
CC(C)N1CCN(c2cnn(Cc3c(-c4ccc(Cl)cc4F)nnn3C)c(=O)c2)C[C@@H]1C [Example 44, 2-((5-(4-chloro-2-fluoro-phenyl)-3-methyl-triazol-4-yl)methyl)-5-((3S)-4-isopropyl-3-methyl-piperazin-1-yl)pyridazin-3-one]	82%	1.82	4.4 nM

More lines, in order of falling Ki (h-GABA-A α5β3γ2 [2]), values ahead:

Efficacy (GABA) % (h-GABA-A α5β3γ2 [1])	Fold increase h-GABA-A α5β3γ2 oocyte (h-GABA-A α5β3γ2 [1])	Ki (h-GABA-A α5β3γ2 [2])	Structure (SMILES)
72%	1.72	16.8 nM	Cn1nnc(-c2ccc(Cl)cc2F)c1Cn1ncc(N2CC(Oc3ccc(Cl)cn3)C2)cc1=O [Example 80, 2-[[5-(4-chloro-2-fluoro-phenyl)-3-methyl-triazol-4-yl]methyl]-5-[3-[(5-chloro-2-pyridyl)oxy]azetidin-1-yl]pyridazin-3-one]
106%	2.06	12.4 nM	Cc1nnn(-c2ccc(Cl)cc2F)c1Cn1ncc(N2CCO[C@H](C)C2)cc1=O [Example 36, 2-[[3-(4-chloro-2-fluoro-phenyl)-5-methyl-triazol-4-yl]methyl]-5-[(2R)-2-methylmorpholin-4-yl]pyridazin-3-one]
138%	2.38	7 nM	C[C@@H]1CN(c2cnn(Cc3c(-c4ccc(F)cc4F)nnn3C)c(=O)c2)C[C@H](C)O1 [Example 58, 2-[[5-(2,4-difluorophenyl)-3-methyl-triazol-4-yl]methyl]-5-[(2R,6S)-2,6-dimethylmorpholin-4-yl]pyridazin-3-one]
125%	2.25	4.3 nM	COc1ncc(-c2cnn(Cc3c(-c4ccc(Cl)cc4F)nnn3C)c(=O)c2)cc1Cl [Example 69, 2-((5-(4-chloro-2-fluoro-phenyl)-3-methyl-triazol-4-yl)methyl)-5-(5-chloro-6-methoxy-3-pyridyl)pyridazin-3-one]
135%	2.35	3.6 nM	Cc1nnn(-c2ccc(Cl)cc2F)c1Cn1ncc(N2C[C@H](C)O[C@@H](C)C2)cc1=O (racemic) [Example 37, 2-[[3-(4-chloro-2-fluoro-phenyl)-5-methyl-triazol-4-yl]methyl]-5-[rac-(2S,6S)-2,6-dimethylmorpholin-4-yl]pyridazin-3-one]
79%	1.79	0.8 nM	Cc1ccc(-c2nnn(C)c2Cn2ncc(N3CCC[C@H]3C)cc2=O)cn1 [Example 18, 2-[[3-methyl-5-(6-methyl-3-pyridyl)triazol-4-yl]methyl]-5-[(2R)-2-methylpyrrolidin-1-yl]pyridazin-3-one]
